Target: Rv3712 (mycobacterial MurT) (Mycobacterium tuberculosis, UniProt I6Y4C7)
Sequence (I6Y4C7 entry or part of it): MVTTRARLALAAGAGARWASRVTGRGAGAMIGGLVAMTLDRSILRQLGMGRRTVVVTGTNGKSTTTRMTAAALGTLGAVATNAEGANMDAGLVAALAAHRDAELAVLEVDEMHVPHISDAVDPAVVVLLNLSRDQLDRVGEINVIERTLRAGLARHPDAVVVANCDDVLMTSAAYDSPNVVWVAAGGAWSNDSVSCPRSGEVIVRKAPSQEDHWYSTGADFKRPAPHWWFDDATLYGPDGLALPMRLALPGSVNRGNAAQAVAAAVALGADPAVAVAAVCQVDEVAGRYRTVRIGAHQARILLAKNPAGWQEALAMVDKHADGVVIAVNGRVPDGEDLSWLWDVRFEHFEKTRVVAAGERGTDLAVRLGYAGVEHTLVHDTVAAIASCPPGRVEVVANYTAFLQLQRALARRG

In the case of `Nc1ncnc2c1ncn2[C@@H]1O[C@H](COP(=O)(O)OP(=O)(O)OP(=O)(O)O)[C@@H](O)[C@H]1O` [ATP], the “inorganic phosphate release (PiColorLock Gold), 30 min” value was “Rv3712 was found to be an ATPase”.

Source: PMC8210147, “Characterization of the MurT/GatD complex in Mycobacterium tuberculosis towards validating a novel anti-tubercular drug target” (JAC-Antimicrobial Resistance, 2021)
